These results are taken from patent US11485742B2, “2-azaspiro[3.4]octane derivatives as M4 agonists” (NOVARTIS AG, priority 2019, dated 2022).

Structures can show the parent of a compound that is named as a salt. Where only a bound is given, the exact number is not on record here.

For assay [1], the target named is T1, human cloned CHRM4 receptor (Homo sapiens, UniProt P08173).
T1 construct: expressed in transfected cells; host or cells: CHO-K1 (M4_CHO)
T1 sequence (P08173 1-479): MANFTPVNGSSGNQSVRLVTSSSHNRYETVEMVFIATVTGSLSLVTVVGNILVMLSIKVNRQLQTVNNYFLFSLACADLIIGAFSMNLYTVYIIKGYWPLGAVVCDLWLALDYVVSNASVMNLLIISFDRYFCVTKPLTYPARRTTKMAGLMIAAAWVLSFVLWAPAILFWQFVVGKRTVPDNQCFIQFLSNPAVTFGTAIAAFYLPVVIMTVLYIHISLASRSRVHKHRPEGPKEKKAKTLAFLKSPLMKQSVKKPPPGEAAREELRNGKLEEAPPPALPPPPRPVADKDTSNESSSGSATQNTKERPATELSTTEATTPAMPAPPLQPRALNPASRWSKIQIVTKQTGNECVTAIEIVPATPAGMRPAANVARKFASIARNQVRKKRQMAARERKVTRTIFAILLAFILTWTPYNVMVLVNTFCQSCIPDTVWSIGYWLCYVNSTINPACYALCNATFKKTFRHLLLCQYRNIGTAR
Description: CHRM4 Ca++ Flux Assay (M4_CHO cells, agonist mode). In kind it is cell-based. To be noted: for Emax / M4 FDSS PA %: Percent Activity (PA); for Emax: read-out: M4 FDSS PA %; for EC50: geometric mean if tested more than once, read-out: M4 FDSS EC50. The procedure, abridged: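 CHO-K1 cells stably expressing human M4 were dye-loaded, then held 60 min at RT in Ca/Mg-free HBSS buffer with 20 μM ATP. Ca++ traces were recorded over 3 min after an 11-point compound series in triplicate, agonist mode, with a four-parameter fit. Percent activity is relative to the carbachol EC100; repeat tests are geometric means.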

In assay [2] the target is T2, human cloned CHRM2 receptor (Homo sapiens, UniProt P08172).
T2 construct: expressed in transfected cells; host or cells: CHO-K1 (M2_CHO)
T2 sequence (P08172 1-466): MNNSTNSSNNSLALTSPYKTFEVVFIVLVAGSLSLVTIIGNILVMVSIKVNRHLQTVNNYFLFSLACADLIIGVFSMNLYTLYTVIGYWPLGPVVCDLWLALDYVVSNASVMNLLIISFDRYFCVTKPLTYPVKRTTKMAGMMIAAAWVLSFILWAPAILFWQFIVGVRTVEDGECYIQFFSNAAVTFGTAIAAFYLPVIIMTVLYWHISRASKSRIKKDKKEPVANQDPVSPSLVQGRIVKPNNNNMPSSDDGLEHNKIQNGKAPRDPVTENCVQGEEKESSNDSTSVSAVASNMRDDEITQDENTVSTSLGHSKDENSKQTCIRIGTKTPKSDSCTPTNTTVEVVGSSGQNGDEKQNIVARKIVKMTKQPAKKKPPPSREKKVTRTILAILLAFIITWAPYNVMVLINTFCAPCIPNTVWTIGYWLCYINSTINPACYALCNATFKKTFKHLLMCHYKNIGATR
The assay is described as follows: CHRM2 Ca++ Flux Assay (M2_CHO cells, agonist mode). To be noted: M2 CHO cells; for EC50: agonist mode, geometric mean if tested more than once, read-out: M2 FDSS EC50; for Emax / M2 FDSS PA %: Percent Activity (PA) measured to EC100 of Carbachol; for Emax: read-out: M2 FDSS PA %. The assay is classed as cell-based. The procedure, abridged: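 CHO-K1 cells stably expressing human CHRM2 were plated overnight at 12K cells/well and loaded with Ca++ dye for 1–2 h. They were then held 60 minutes in HBSS −Ca/−Mg, 20 mM HEPES, 2.5 mM probenecid, 20 μM ATP. Agonist-mode Ca++ flux was read over 3 minutes. Four-parameter fits of triplicates gave percent activity relative to carbachol EC100.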

As to `Fc1ccc(OCC2C3COCC32)c(C2CCN([C@@H]3COC4(C3)CN(c3nnco3)C4)CC2)c1` (stereo partly drawn) [Example 2Z, (7S)-7-(4-(2-((3-oxabicyclo[3.1.0]hexan-6-yl)methoxy)-5-fluorophenyl)piperidin-1-yl)-2-(1,3,4-oxadiazol-2-yl)-5-oxa-2-azaspiro[3.4]octane], the Emax was 51% in assay [1] and 24% in assay [2]. Moreover, the EC50 (as a rule, the concentration that produces a half-maximal response) in assay [1] stood at 108 nM; in assay [2], 760 nM.
On to `COCCOc1ccc(F)cc1C1CCN([C@@H]2COC3(C2)CN(c2ncns2)C3)CC1` [Example 5D, (S)-7-(4-(5-fluoro-2-(2-methoxyethoxy)phenyl)piperidin-1-yl)-2-(1,2,4-thiadiazol-5-yl)-5-oxa-2-azaspiro[3.4]octane], for which the values for the Emax in assay [1] and in assay [2] were 46% and 0%, respectively. Also, the EC50 in assay [1] was 128 nM; in assay [2] it was over 25000 nM.
With `c1ccc(C2CCN([C@@H]3COC4(C3)CN(c3ncco3)C4)CC2)c(O[C@@H]2CCOC2)c1` [Example 4F, (S)-2-(oxazol-2-yl)-7-(4-(2-(((R)-tetrahydrofuran-3-yl)oxy)phenyl)piperidin-1-yl)-5-oxa-2-azaspiro[3.4]octane], in assay [1], the Emax was found to be 80% and the EC50 was 15 nM. Besides, in assay [2], the 50% effective concentration (EC50) was 3260 nM and the Emax stood at 17%.
Regarding `Fc1ccc(O[C@H]2CCCOC2)c(C2CCN([C@@H]3COC4(C3)CN(c3nnco3)C4)CC2)c1` (single isomer, unassigned) [Example 2Q, (S)-7-(4-(5-fluoro-2-(((S)-tetrahydro-2H-pyran-3-yl)oxy)phenyl)piperidin-1-yl)-2-(1,3,4-oxadiazol-2-yl)-5-oxa-2-azaspiro[3.4]octane or (S)-7-(4-(5-fluoro-2-(((R)-tetrahydro-2H-pyran-3-yl)oxy)phenyl)piperidin-1-yl)-2-(1,3,4-oxadiazol-2-yl)-5-oxa-2-azaspiro[3.4]octane], in assay [1], the “M4 FDSS PA %” value was 81% and the EC50 is 130 nM. In assay [2], the EC50 amounted to 1160 nM and the “M2 FDSS PA %” value amounted to 26%.
Regarding `Fc1cc(OC2CCOCC2)c(C2CCN([C@@H]3COC4(C3)CN(c3nnco3)C4)CC2)cc1F` [Example 2GG, (S)-7-(4-(4,5-difluoro-2-((tetrahydro-2H-pyran-4-yl)oxy)phenyl)piperidin-1-yl)-2-(1,3,4-oxadiazol-2-yl)-5-oxa-2-azaspiro[3.4]octane], in assay [1], the Emax worked out at 58% and the EC50 was 87 nM. Besides, in assay [2], the EC50 is over 25000 nM and the Emax stood at 0%.
`Fc1cc(OCC2COC2)c(C2CCN([C@@H]3COC4(C3)CN(c3ncco3)C4)CC2)cc1F` [Example 4O, (S)-7-(4-(4,5-difluoro-2-(oxetan-3-ylmethoxy)phenyl)piperidin-1-yl)-2-(oxazol-2-yl)-5-oxa-2-azaspiro[3.4]octane]: the Emax in assay [1] turned out to be 58%; in assay [2], 31%. Also, the results for the EC50 in assay [1] and in assay [2] were 7 nM and 12700 nM, respectively.
For `c1ccc([C@@H]2CCOC2)c(C2CCN([C@@H]3COC4(C3)CN(c3nnco3)C4)CC2)c1` (single isomer, unassigned) [Example 3B, (S)-2-(1,3,4-oxadiazol-2-yl)-7-(4-(2-((S)-tetrahydrofuran-3-yl)phenyl)piperidin-1-yl)-5-oxa-2-azaspiro[3.4]octane or (S)-2-(1,3,4-oxadiazol-2-yl)-7-(4-(2-((R)-tetrahydrofuran-3-yl)phenyl)piperidin-1-yl)-5-oxa-2-azaspiro[3.4]octane], in assay [1], the “M4 FDSS PA %” value amounted to 86% and the EC50 is 69 nM. Besides, in assay [2], the EC50 came out at 1500 nM and the “M2 FDSS PA %” value stood at 31%.
`COc1ccccc1C1CCN([C@@H]2COC3(C2)CN(c2ncco2)C3)CC1` [Example 4N, (S)-7-(4-(2-methoxyphenyl)piperidin-1-yl)-2-(oxazol-2-yl)-5-oxa-2-azaspiro[3.4]octane]: in assay [1], the Emax was 74% and the EC50 came to 93 nM. Further, in assay [2], the EC50 was over 25000 nM and the Emax was 0%.
The corresponding values for `c1ccc(C2CCN([C@@H]3COC4(C3)CN(c3nncs3)C4)CC2)c(OC2COC2)c1` [Example 5Q, (S)-7-(4-(2-(oxetan-3-yloxy)phenyl)piperidin-1-yl)-2-(1,3,4-thiadiazol-2-yl)-5-oxa-2-azaspiro[3.4]octane formate salt] are 83%, 92 nM, over 25000 nM and 0%.
On to `CC(C)(O)[C@H]1C[C@@H](Oc2ccc(F)cc2C2CCN([C@@H]3COC4(C3)CN(c3ncco3)C4)CC2)C1` (single isomer, unassigned) [Example 4U, 2-((1R,3s)-3-(4-fluoro-2-(1-((S)-2-(oxazol-2-yl)-5-oxa-2-azaspiro[3.4]octan-7-yl)piperidin-4-yl)phenoxy)cyclobutyl)propan-2-ol or 2-((1S,3r)-3-(4-fluoro-2-(1-((S)-2-(oxazol-2-yl)-5-oxa-2-azaspiro[3.4]octan-7-yl)piperidin-4-yl)phenoxy)cyclobutyl)propan-2-ol], for which, in assay [1], the “M4 FDSS PA %” value is 62% and the EC50 was determined as 42 nM. For the same compound, in assay [2], the EC50 came out at 15200 nM and the “M2 FDSS PA %” value is 38%.
As to `Cc1nc(COc2ccccc2C2CCN([C@@H]3COC4(C3)CN(c3nncs3)C4)CC2)no1` [Example 5F, (S)-7-(4-(2-((5-methyl-1,2,4-oxadiazol-3-yl)methoxy)phenyl)piperidin-1-yl)-2-(1,3,4-thiadiazol-2-yl)-5-oxa-2-azaspiro[3.4]octane], the Emax in assay [1] was 90%; in assay [2], 51%. Also, the EC50 in assay [1] is under 0.4 nM; in assay [2], 73 nM.
Turning to `Fc1ccc(OC2CCOCC2)c(C2CCN([C@@H]3COC4(C3)CN(c3ncco3)C4)CC2)c1` [Example 4E, (S)-7-(4-(5-fluoro-2-((tetrahydro-2H-pyran-4-yl)oxy)phenyl)piperidin-1-yl)-2-(oxazol-2-yl)-5-oxa-2-azaspiro[3.4]octane], the Emax in assay [1] stood at 81%; in assay [2], 0%. The values for the EC50 in assay [1] and in assay [2] were 12 nM and over 25000 nM, respectively.
With `Fc1ccc(O[C@H]2CCCOC2)c(C2CCN([C@@H]3COC4(C3)CN(c3nnco3)C4)CC2)c1` (single isomer, unassigned) [Example 2R, (S)-7-(4-(5-fluoro-2-(((S)-tetrahydro-2H-pyran-3-yl)oxy)phenyl)piperidin-1-yl)-2-(1,3,4-oxadiazol-2-yl)-5-oxa-2-azaspiro[3.4]octane or (S)-7-(4-(5-fluoro-2-(((R)-tetrahydro-2H-pyran-3-yl)oxy)phenyl)piperidin-1-yl)-2-(1,3,4-oxadiazol-2-yl)-5-oxa-2-azaspiro[3.4]octane], in assay [1], the “M4 FDSS PA %” value turned out to be 76% and the EC50 was found to be 25 nM. In addition, in assay [2], the EC50 was 259 nM and the “M2 FDSS PA %” value is on record as 42%.
Consider `c1ccc(C2CCN([C@@H]3COC4(C3)CN(c3ncco3)C4)CC2)c(-c2cncnc2)c1` [Example 4R, (S)-2-(oxazol-2-yl)-7-(4-(2-(pyrimidin-5-yl)phenyl)piperidin-1-yl)-5-oxa-2-azaspiro[3.4]octane], for which, in assay [1], the Emax stood at 70% and the EC50 is 3 nM. Besides, in assay [2], the EC50 was found to be 203 nM and the Emax was 12%.
Consider `Fc1cc(F)c(OC2COC2)c(C2CCN([C@@H]3COC4(C3)CN(c3nnco3)C4)CC2)c1` [Example 2EE, (S)-7-(4-(3,5-difluoro-2-(oxetan-3-yloxy)phenyl)piperidin-1-yl)-2-(1,3,4-oxadiazol-2-yl)-5-oxa-2-azaspiro[3.4]octane], for which, in assay [1], the Emax was determined as 74% and the EC50 worked out at 86 nM. In assay [2], the EC50 was found to be 2940 nM and the Emax is 50%.
